The conditions of data set [1]: 14-membered ring.
The target in data set [2] is T1, CFTR (F508del/MF-HBE cells) (Homo sapiens, UniProt P13569, DEL508-508).
T1 construct: human bronchial epithelial (HBE) cells derived from CF subjects heterozygous for F508del and a minimal function CFTR mutation (F508del/MF-HBE); endogenous in cells; host or cells: primary human bronchial epithelial (HBE) cells from CF subjects, genotype F508del/minimal function
The data set is described as follows: Ussing chamber assay of CFTR-mediated short-circuit currents (potentiator identification). It counts as cell-based. The settings on record: CFTR-mediated Isc, 18-24 h incubation at 37° C. with 10 μM (14S)-8-[3-(2-{dispiro[2.0.2.1]heptan-7-yl}ethoxy)-1H-pyrazol-1-yl]-... corrector, 20% human serum. The protocol:
Ussing Chamber Assay of CFTR-Mediated Short-Circuit Currents
Ussing chamber experiments were performed using human bronchial epithelial (HBE) cells derived from CF subjects heterozygous for F508del and a minimal function CFTR mutation (F508del/MF-HBE) and cultured as previously described (Neuberger T, Burton B, Clark H, Van Goor F Methods Mol Biol 2011:741:39-54). After four days the apical media was removed, and the cells were grown at an air liquid interface for >14 days prior to use.
To isolate the CFTR-mediated short-circuit (Isc) current, F508del/MF-HBE grown on Costar® Snapwell™ cell culture inserts were mounted in an Ussing chamber and the transepithelial ISC was measured under voltage-clamp recording conditions (Vhold=0 mV) at 37° C. The basolateral solution contained (in mM) 145 NaCl, 0.83 K2HPO4, 3.3 KH2PO4, 1.2 MgCl2, 1.2 CaCl2, 10 Glucose, 10 HEPES (pH adjusted to 7.4 with NaOH) and the apical solution contained (in mM) 145 NaGluconate, 1.2 MgCl2, 1.2 CaCl2, 10 glucose, 10 HEPES (pH adjusted to 7.4 with NaOH) and 30 μM amiloride to block the epithelial sodium channel. Forskolin (20 μM) was added to the apical surface to activate CFTR, followed by apical addition of a CFTR inhibitor cocktail consisting of BPO, GlyH-101 and CFTR inhibitor 172 (each at 20 μM final assay concentration) to specifically isolate CFTR currents. The CFTR-mediated Isc (μA/cm^2) for each condition was determined from the peak forskolin response to the steady-state current following inhibition.
Identification of Potentiator Compounds
The activity of the CFTR potentiator compounds on the CFTR-mediated Isc was determined in Ussing chamber studies as described above. The F508del/MF-HBE cell cultures were incubated with the potentiator compounds at a range of concentrations in combination with 10 μM (14S)-8-[3-(2-{dispiro[2.0.2.1]heptan-7-yl}ethoxy)-1H-pyrazol-1-yl]-12,12-dimethyl-2λ^6-thia-3,9,11,18,23-pentaazatetracyclo[17.3.1.111,14.05,10]tetracosa-1(22),5,7,9,19(23),20-hexaene-2,2,4-trione for 18-24 hours at 37° C. and in the presence of 20% human serum. The concentration of potentiator compounds and (14S)-8-[3-(2-{dispiro[2.0.2.1]heptan-7-yl}ethoxy)-1H-pyrazol-1-yl]-12,12-dimethyl-2λ^6-thia-3,9,11,18,23-pentaazatetracyclo[17.3.1.111,14.05,10]tetracosa-1(22),5,7,9,19(23),20-hexaene-2,2,4-trione used during the 18-24 hours incubations was kept constant throughout the Ussing chamber measurement of the CFTR-mediated Isc to ensure compounds were present throughout the entire experiment. The efficacy and potency of the putative F508del potentiators was compared to that of the known Vertex potentiator, ivacaftor (N-[2,4-bis(1,1-dimethylethyl)-5-hydroxyphenyl]-1,4-dihydro-4-oxoquinoline-3-carboxamide).

Molecules are shown by their SMILES. Like-named read-outs stand apart in the source and are kept apart here. A value given as a limit tells only on which side of the number the result lay.

A word on the EC50: it is the midpoint of the concentration-response curve.

T1 sequence (P13569 with tags, fused parts or gaps DEL508-508): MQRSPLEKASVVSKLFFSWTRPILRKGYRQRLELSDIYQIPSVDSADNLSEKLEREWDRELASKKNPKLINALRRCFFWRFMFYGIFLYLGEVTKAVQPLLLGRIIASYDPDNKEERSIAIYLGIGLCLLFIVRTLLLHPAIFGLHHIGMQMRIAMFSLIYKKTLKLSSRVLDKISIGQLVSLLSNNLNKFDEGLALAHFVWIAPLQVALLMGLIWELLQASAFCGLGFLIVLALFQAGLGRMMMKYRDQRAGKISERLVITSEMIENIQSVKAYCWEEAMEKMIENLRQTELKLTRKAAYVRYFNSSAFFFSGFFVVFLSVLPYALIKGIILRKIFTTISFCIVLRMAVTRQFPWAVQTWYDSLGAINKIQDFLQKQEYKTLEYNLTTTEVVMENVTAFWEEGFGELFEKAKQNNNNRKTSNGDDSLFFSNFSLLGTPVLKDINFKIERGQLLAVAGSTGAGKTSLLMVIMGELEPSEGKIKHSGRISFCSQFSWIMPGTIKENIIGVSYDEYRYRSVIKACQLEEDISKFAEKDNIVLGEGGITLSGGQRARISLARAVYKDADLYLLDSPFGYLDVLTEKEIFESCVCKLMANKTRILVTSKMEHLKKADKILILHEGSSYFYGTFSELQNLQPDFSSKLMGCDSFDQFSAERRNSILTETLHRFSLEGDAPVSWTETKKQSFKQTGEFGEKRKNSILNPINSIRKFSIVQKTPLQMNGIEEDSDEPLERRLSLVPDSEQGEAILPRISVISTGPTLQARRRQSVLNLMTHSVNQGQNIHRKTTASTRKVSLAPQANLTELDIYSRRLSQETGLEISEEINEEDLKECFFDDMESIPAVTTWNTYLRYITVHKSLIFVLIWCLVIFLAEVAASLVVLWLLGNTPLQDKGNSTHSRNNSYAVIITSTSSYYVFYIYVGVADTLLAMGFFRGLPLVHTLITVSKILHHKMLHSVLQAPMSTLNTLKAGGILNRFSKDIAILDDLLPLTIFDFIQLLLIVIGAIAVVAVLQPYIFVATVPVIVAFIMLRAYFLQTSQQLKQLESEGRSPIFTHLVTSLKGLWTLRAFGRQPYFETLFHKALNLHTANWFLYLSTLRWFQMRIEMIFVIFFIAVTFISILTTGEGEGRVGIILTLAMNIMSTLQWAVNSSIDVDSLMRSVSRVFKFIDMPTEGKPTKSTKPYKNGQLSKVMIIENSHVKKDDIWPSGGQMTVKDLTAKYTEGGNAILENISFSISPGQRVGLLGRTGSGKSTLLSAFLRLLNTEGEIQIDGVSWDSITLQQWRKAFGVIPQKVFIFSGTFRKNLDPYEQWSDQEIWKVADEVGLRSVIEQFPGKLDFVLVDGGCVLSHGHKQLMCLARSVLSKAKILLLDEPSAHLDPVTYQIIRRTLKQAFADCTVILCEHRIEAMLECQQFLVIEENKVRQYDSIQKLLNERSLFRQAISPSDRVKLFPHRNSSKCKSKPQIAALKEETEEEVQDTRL

Take `C[C@@H]1CCCOCC(OCc2ccccc2)(C(F)(F)F)C2=NN=C(O2)c2nc(c(C(F)(F)F)cc2N(C(=O)OC(C)(C)C)C(=O)OC(C)(C)C)O1` (stereo partly shown): in data set [1] (from C[C@H](O)CCCOCC(OCc1ccccc1)(c1nnc(-c2nc(O)c(C(F)(F)F)cc2N(C(=O)OC(C)(C)C)C(=O)OC(C)(C)C)o1)C(F)(F)F, ether bond, PPh3/DIAD, toluene, 6.1 mM, 6.0 h), the ring closure, isolated yield turned out to be 59%.

On to `C[C@@H]1CCOCCC(OCc2ccccc2)(C(F)(F)F)C2=NN=C(O2)c2nc(c(C(F)(F)F)cc2N(C(=O)OC(C)(C)C)C(=O)OC(C)(C)C)O1` (stereo partly shown), for which the ring closure, isolated yield in data set [1] (from C[C@H](O)CCOCCC(OCc1ccccc1)(c1nnc(-c2nc(O)c(C(F)(F)F)cc2N(C(=O)OC(C)(C)C)C(=O)OC(C)(C)C)o1)C(F)(F)F, ether bond, PPh3/DIAD, toluene, 10.2 mM, 7.0 h) was determined as 57%.

For the compound `C[C@@H]1COCCC[C@](OCc2ccccc2)(C(F)(F)F)C2=NN=C(O2)c2nc(c(C(F)(F)F)cc2N(C(=O)OC(C)(C)C)C(=O)OC(C)(C)C)O1`, in data set [1] (from tert-butyl N-[2-[5-[(1R)-1-benzyloxy-4-[(25)-2-hydroxypropoxy]-1-(trifluoromethyl)butyl]-1,3,4-oxadiazol-2-yl]-6-hydroxy-5-(trifluoromethyl)-3-pyridyl]-N-tert-butoxycarbonyl-carbamate, ether bond, PPh3/DIAD, THF, 15.0 mM), the ring closure, isolated yield was 50%.

As for `CC(C)(C)OC(=O)N(C(=O)OC(C)(C)C)c1cc(C(F)(F)F)c2nc1-c1nnc(o1)[C@@](OCc1ccccc1)(C(F)(F)F)CCC=CCC(Cc1ccc(F)cc1)O2` (mixture of isomers), the ring closure, isolated yield in data set [1] (from C=CCC[C@@](OCc1ccccc1)(c1nnc(-c2nc(OC(CC=C)Cc3ccc(F)cc3)c(C(F)(F)F)cc2N(C(=O)OC(C)(C)C)C(=O)OC(C)(C)C)o1)C(F)(F)F, rcm bond, Zhan-1B, DCE, 2.35 mM, 60.0 °C, 1.0 h) stood at 63%.

For `CC(C)(C)OC(=O)Nc1cc(C(F)(F)F)c2nc1-c1nnc(o1)[C@@](OCc1ccccc1)(C(F)(F)F)CC=CCCCO2` (mixture of isomers), the ring closure, isolated yield in data set [1] (from C=CCCCOc1nc(-c2nnc([C@@](CC=C)(OCc3ccccc3)C(F)(F)F)o2)c(NC(=O)OC(C)(C)C)cc1C(F)(F)F, rcm bond, Zhan-1B, DCE, 6.7 mM, 60.0 °C, 4.0 h) was found to be 65%.

On to `CC(C)C1CC=CCC[C@](OCc2ccccc2)(C(F)(F)F)C2=NN=C(O2)c2nc(c(C(F)(F)F)cc2N(C(=O)OC(C)(C)C)C(=O)OC(C)(C)C)O1` (mixture of isomers), for which, in data set [1] (from C=CCC[C@@](OCc1ccccc1)(c1nnc(-c2nc(OC(CC=C)C(C)C)c(C(F)(F)F)cc2N(C(=O)OC(C)(C)C)C(=O)OC(C)(C)C)o1)C(F)(F)F, rcm bond, Zhan-1B, DCE, 2.09 mM, 60.0 °C, 6.0 h), the ring closure, isolated yield stood at 61%.

In turn, `CC1(C)CC=CC[C@](OCc2ccccc2)(C(F)(F)F)C2=NN=C(O2)c2nc(c(C(F)(F)F)cc2N(C(=O)OC(C)(C)C)C(=O)OC(C)(C)C)OC1` (mixture of isomers) displayed a ring closure, isolated yield in data set [1] (from C=CCC(C)(C)COc1nc(-c2nnc([C@@](CC=C)(OCc3ccccc3)C(F)(F)F)o2)c(N(C(=O)OC(C)(C)C)C(=O)OC(C)(C)C)cc1C(F)(F)F, rcm bond, Zhan-1B, toluene, 2.2 mM, 110.0 °C, 4.0 h) of 10%.

For `CC1CC=CCCC(OCc2ccccc2)(C(F)(F)F)C2=NN=C(O2)c2nc(c(C(F)(F)F)cc2NC(=O)OC(C)(C)C)O1` (mixture of isomers), the ring closure, isolated yield in data set [1] (from C=CCCC(OCc1ccccc1)(c1nnc(-c2nc(OC(C)CC=C)c(C(F)(F)F)cc2NC(=O)OC(C)(C)C)o1)C(F)(F)F, rcm bond, Zhan-1B, DCE, 4.57 mM, 70.0 °C, 16.0 h) came to 36%.

On to `CCC1CCC=CC[C@](OCc2ccccc2)(C(F)(F)F)C2=NN=C(O2)c2nc(c(C(F)(F)F)cc2N(C(=O)OC(C)(C)C)C(=O)OC(C)(C)C)O1` (mixture of isomers), for which the ring closure, isolated yield in data set [1] (from C=CCCC(CC)Oc1nc(-c2nnc([C@@](CC=C)(OCc3ccccc3)C(F)(F)F)o2)c(N(C(=O)OC(C)(C)C)C(=O)OC(C)(C)C)cc1C(F)(F)F, rcm bond, Zhan-1B, DCE, 5.4 mM, 70.0 °C) came to 91%.

`C[C@@H]1CCC=CC(F)(F)C(OCc2ccccc2)C2=NN=C(O2)c2nc(c(C(F)(F)F)cc2[N+](=O)[O-])O1` (mixture of isomers) displayed a ring closure, isolated yield in data set [1] (from C=CCC[C@@H](C)Oc1nc(-c2nnc(C(OCc3ccccc3)C(F)(F)C=C)o2)c([N+](=O)[O-])cc1C(F)(F)F, rcm bond, Grubbs II, DCE, 1.8 mM, 75.0 °C, 0.92 h) of 30%.

The compound `C[C@@H]1CCC=CC(O)C(OCc2ccccc2)(C(F)(F)F)C2=NN=C(O2)c2nc(c(C(F)(F)F)cc2N)O1` (mixture of isomers) had a ring closure, isolated yield in data set [1] (from C=CCC[C@@H](C)Oc1nc(-c2nnc(C(OCc3ccccc3)(C(O)C=C)C(F)(F)F)o2)c(N)cc1C(F)(F)F, rcm bond, Zhan-1B, DCE, 3.1 mM, 70.0 °C, 3.5 h) of 76%.

In the case of `C[C@H]1Oc2nc(c(NC(=O)OC(C)(C)C)cc2C(F)(F)F)C2=NN=C(O2)[C@@](OCc2ccccc2)(C(F)(F)F)CC=CCC1OCc1ccccc1` (mixture of isomers), the ring closure, isolated yield in data set [1] (from C=CCC(OCc1ccccc1)[C@@H](C)Oc1nc(-c2nnc([C@@](CC=C)(OCc3ccccc3)C(F)(F)F)o2)c(NC(=O)OC(C)(C)C)cc1C(F)(F)F, rcm bond, Zhan-1B, DCE, 6.94 mM, 70.0 °C, 48.0 h) was 56%.

As for `O=[N+]([O-])c1cc(C(F)(F)F)c2nc1-c1nnc(o1)[C@@](OCc1ccccc1)(C(F)(F)F)CCC=CCC(C1CC1)O2` (mixture of isomers), in data set [1] (from C=CCC[C@@](OCc1ccccc1)(c1nnc(-c2nc(OC(CC=C)C3CC3)c(C(F)(F)F)cc2[N+](=O)[O-])o1)C(F)(F)F, rcm bond, Zhan-1B, DCE, 1.6 mM, 70.0 °C, 2.25 h), the ring closure, isolated yield came out at 59%.

With `Nc1cc(C(F)(F)F)c2nc1-c1nnc(o1)[C@@](O)(C(F)(F)F)CCCCC[C@@H](CO)O2` [Compound 37, (6R,12S)-17-amino-12-(hydroxymethyl)-6,15-bis(trifluoromethyl)-13,19-dioxa-3,4,18-triazatricyclo[12.3.1.12,5]nonadeca-1(18),2,4,14,16-pentaen-6-ol], in data set [2], the EC50 is below 500 nM.

Regarding `[2H]C1CC[C@](O)(C(F)(F)F)C2=NN=C(O2)c2nc(c(C(F)(F)F)cc2N)O[C@H](C)CC1[2H]` (stereo partly drawn) [Compound 38, (6R,12R)-17-amino-9,10-dideuterio-12-methyl-6,15-bis(trifluoromethyl)-13,19-dioxa-3,4,18-triazatricyclo[12.3.1.12,5]nonadeca-1(18),2,4,14,16-pentaen-6-ol], the EC50 in data set [2] was below 500 nM.

For `[2H]C([2H])([2H])[C@@]1([2H])Oc2nc(c(N)cc2C(F)(F)F)C2=NN=C(O2)[C@@](O)(C(F)(F)F)CCCCC1([2H])[2H]` [Compound 39, (6R,12R)-17-amino-11,11,12-trideuterio-12-(trideuteriomethyl)-6,15-bis(trifluoromethyl)-13,19-dioxa-3,4,18-triazatricyclo[12.3.1.12,5]nonadeca-1(18),2,4,14,16-pentaen-6-ol], the EC50 in data set [2] was below 500 nM.

As to `[2H]C1CC[C@@H](C)Oc2nc(c(N)cc2C(F)(F)F)C2=NN=C(O2)[C@@](O)(C(F)(F)F)CC1[2H]` (stereo partly drawn) [Compound 44, (6R,12R)-17-amino-8,9-dideuterio-12-methyl-6,15-bis(trifluoromethyl)-13,19-dioxa-3,4,18-triazatricyclo[12.3.1.12,5]nonadeca-1(17),2,4,14(18),15-pentaen-6-ol], in data set [2], the EC50 was below 500 nM.

With `C[C@@H]1COCCC[C@](O)(C(F)(F)F)C2=NN=C(O2)c2nc(c(C(F)(F)F)cc2N)O1` [Compound 59, (6R,12R)-17-amino-12-methyl-6,15-bis(trifluoromethyl)-10,13,19-trioxa-3,4,18-triazatricyclo[12.3.1.12,5]nonadeca-1(18),2,4,14,16-pentaen-6-ol], the EC50 in data set [2] is above 1000 nM.

Consider `CC1(C)CCCC[C@](O)(C(F)(F)F)C2=NN=C(O2)c2nc(c(C(F)(F)F)cc2N)OC1` [Compound 61, (6R)-17-amino-11,11-dimethyl-6,15-bis(trifluoromethyl)-13,19-dioxa-3,4,18-triazatricyclo[12.3.1.12,5]nonadeca-1(18),2,4,14,16-pentaen-6-ol], for which, in data set [2], the EC50 is below 500 nM.

These data come from US12269831B2, “Modulators of cystic fibrosis transmembrane conductance regulator” (Vertex Pharmaceuticals Incorporated, priority 2020, dated 2025).
